Literature values as cited in US20070066602A1, “Process for Making Olanzapine Form I” (priority 2005, published 2007).

Assays:
[1] = at pH 6.8; free base, crystalline solid

Compound | solubility in water (qualitative) | solubility [1]
Cc1cc2c(s1)Nc1ccccc1N=C2N1CCN(C)CC1.O=C(O)c1ccccc1 [Olanzapine benzoate] | sparingly soluble in water | –
Cc1cc2c(s1)Nc1ccccc1N=C2N1CCN(C)CC1 [olanzapine, Olanzapine] | insoluble in water | about 0.02 mg/ml
